Test results taken from ChEMBL document CHEMBL3286253, “Design, synthesis, and structure-activity relationship studies of novel thioether pleuromutilin derivatives as potent antibacterial agents” (J Med Chem, 2014).
Values after ≈ are worked out from the molar mass of the structure shown.

What was measured:
[1] = Aqueous solubility of the compound in water at pH 7.4; conditions: water
[2] = Chemical stability of solid state of the compound assessed as compound remaining after 24 hrs by UV/HPLC analysis; format: physicochemical; conditions: read-out: Stability
[3] = Chemical stability of solid state of the compound assessed as compound remaining after 100 days by UV/HPLC analysis; format: physicochemical; conditions: read-out: Stability
[4] = Chemical stability of aqueous solution state of the compound assessed as compound remaining after 24 hrs by UV/HPLC analysis; format: physicochemical; conditions: read-out: Stability
[5] = Chemical stability of aqueous solution state of the compound assessed as compound remaining after 14 days by UV/HPLC analysis; format: physicochemical; conditions: read-out: Stability
[6] = Tmax in Sprague-Dawley rat at 10 mg/kg, iv; format: ADME, organism-based; design: dose 10 mg/kg, route intravenous; conditions: in vivo
[7] = AUC (0 to t) in Sprague-Dawley rat at 10 mg/kg, iv; format: ADME, organism-based; design: dose 10 mg/kg, route intravenous; conditions: plasma
[8] = Mean residence time in Sprague-Dawley rat at 10 mg/kg, iv; format: ADME, organism-based; design: dose 10 mg/kg, route intravenous; conditions: in vivo
[9] = Elimination half life in Sprague-Dawley rat at 10 mg/kg, iv; format: ADME, organism-based; design: dose 10 mg/kg, route intravenous; conditions: in vivo, read-out: beta t1/2 (converted)
[10] = Clearance in Sprague-Dawley rat at 10 mg/kg, iv; format: ADME, organism-based; design: dose 10 mg/kg, route intravenous; conditions: in vivo
[11] = Volume of distribution at steady state in Sprague-Dawley rat at 10 mg/kg, iv; format: ADME, organism-based; design: dose 10 mg/kg, route intravenous; conditions: in vivo, read-out: Vdss
Staphylococcus aureus [12] = assay: Antibacterial activity against clinical isolate of methicillin-sensitive Staphylococcus aureus infected in iv dosed mouse administered 1 hr after infection for 4 days; format: functional
Staphylococcus aureus [13] = assay: Antibacterial activity against clinical isolate of methicillin-sensitive Staphylococcus aureus infected in iv dosed mouse assessed as host survival administered 1 hr after infection for 4 days; format: functional
[14] = Plasma concentration in Sprague-Dawley rat at 10 mg/kg, iv after 15 mins; format: ADME, organism-based; design: dose 10 mg/kg, route intravenous
Rattus norvegicus = assay: Tmax in Sprague-Dawley rat assessed as 14-O-(((5-hydroxymethylpyridin-3-yl)sulfanyl)acetyl)mutilin level at 10 mg/kg, iv; format: ADME, organism-based; design: dose 10 mg/kg, route intravenous; conditions: in vivo
Staphylococcus aureus [15] = assay: Antibacterial activity against Staphylococcus aureus […] after 16 hrs by agar dilution method; format: functional
Staphylococcus aureus [16] = assay: Antibacterial activity against methicillin-sensitive Staphylococcus aureus after 16 hrs by agar dilution method; format: functional
Staphylococcus aureus [17] = assay: Antibacterial activity against methicillin-resistant Staphylococcus aureus after 16 hrs by agar dilution method; format: functional
[18] = test system: Staphylococcus epidermidis; assay: Antibacterial activity against methicillin-sensitive Staphylococcus epidermidis after 16 hrs by agar dilution method; format: functional
Streptococcus pneumoniae = assay: Antibacterial activity against penicillin-resistant Streptococcus pneumoniae after 16 hrs by agar dilution method; format: functional
[19] = AUC (0 to t) in Sprague-Dawley rat at 2 mg/kg, iv administered as cassette dosing; format: ADME, organism-based; design: dose 2 mg/kg, route intravenous; conditions: plasma
[20] = Mean residence time in Sprague-Dawley rat at 2 mg/kg, iv administered as cassette dosing; format: ADME, organism-based; design: dose 2 mg/kg, route intravenous; conditions: in vivo
[21] = Elimination half life in Sprague-Dawley rat at 2 mg/kg, iv administered as cassette dosing; format: ADME, organism-based; design: dose 2 mg/kg, route intravenous; conditions: in vivo, read-out: beta t1/2 (converted)
[22] = Clearance in Sprague-Dawley rat at 2 mg/kg, iv administered as cassette dosing; format: ADME, organism-based; design: dose 2 mg/kg, route intravenous; conditions: in vivo
[23] = Volume of distribution at steady state in Sprague-Dawley rat at 2 mg/kg, iv administered as cassette dosing; format: ADME, organism-based; design: dose 2 mg/kg, route intravenous; conditions: in vivo, read-out: Vdss
Staphylococcus aureus [24] = assay: Antibacterial activity against of methicillin-sensitive Staphylococcus aureus ATCC 19636 infected in iv dosed mouse administered 1 hr after infection measured after 48 hrs; format: functional
Staphylococcus aureus [25] = assay: Antibacterial activity against of methicillin-sensitive Staphylococcus aureus ATCC 19636 infected in iv dosed mouse assessed as host survival administered 1 hr after infection measured after 48 hrs; format: functional; conditions: ATCC 19636, iv
Staphylococcus aureus [26] = assay: Antibacterial activity against of methicillin-resistant Staphylococcus aureus ATCC 33591 infected in iv dosed neutropenic mouse administered 1 hr after infection measured after 24 hrs; format: functional
Staphylococcus aureus [27] = assay: Antibacterial activity against of methicillin-resistant Staphylococcus aureus ATCC 33591 infected in iv dosed neutropenic mouse assessed as host survival administered 1 hr after infection measured after 24 hrs; format: functional; conditions: ATCC 33591, iv
Cytochrome P450 1A2 = target: T1, Cytochrome P450 1A2 (Homo sapiens, UniProt P05177); assay: Inhibition of CYP1A2 in human liver microsomes using phenacetin as substrate after 15 mins by LC/MS/MS analysis
T1 sequence (P05177 whole entry): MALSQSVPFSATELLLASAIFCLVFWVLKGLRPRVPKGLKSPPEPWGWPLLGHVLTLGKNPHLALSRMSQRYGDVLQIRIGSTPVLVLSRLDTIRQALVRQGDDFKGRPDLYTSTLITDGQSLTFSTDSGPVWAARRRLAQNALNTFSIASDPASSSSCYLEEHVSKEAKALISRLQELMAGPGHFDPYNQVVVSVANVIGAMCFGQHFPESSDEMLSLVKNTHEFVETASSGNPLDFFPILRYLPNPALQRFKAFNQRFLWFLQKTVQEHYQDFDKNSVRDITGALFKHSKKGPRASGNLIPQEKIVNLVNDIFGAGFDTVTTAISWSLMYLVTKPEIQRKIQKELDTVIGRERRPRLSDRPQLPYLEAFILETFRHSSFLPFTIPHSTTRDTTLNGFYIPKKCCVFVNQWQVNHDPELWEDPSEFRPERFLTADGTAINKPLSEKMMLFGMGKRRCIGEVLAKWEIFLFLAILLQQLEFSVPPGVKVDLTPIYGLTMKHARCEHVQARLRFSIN

Cytochrome P450 2C9 = Cytochrome P450 2C9 (Homo sapiens, UniProt P11712); assay: Inhibition of CYP2C9 in human liver microsomes using tolbutamide as substrate after 15 mins by LC/MS/MS analysis
Cytochrome P450 2C19 = Cytochrome P450 2C19 (Homo sapiens, UniProt P33261); assay: Inhibition of CYP2C19 in human liver microsomes using mephenytoin as substrate after 15 mins by LC/MS/MS analysis
Cytochrome P450 2D6 = Cytochrome P450 2D6 (Homo sapiens, UniProt P10635); assay: Inhibition of CYP2D6 in human liver microsomes using dextromethorphan as substrate after 15 mins by LC/MS/MS analysis
Cytochrome P450 3A4 [28] = target: T2, Cytochrome P450 3A4 (Homo sapiens, UniProt P08684); assay: Inhibition of CYP3A4 in human liver microsomes using midazolam as substrate after 15 mins by LC/MS/MS analysis
Cytochrome P450 3A4 [29] = target: T2, Cytochrome P450 3A4; assay: Inhibition of CYP3A4 in human liver microsomes using testosterone as substrate after 15 mins by LC/MS/MS analysis
[30] = test system: Staphylococcus epidermidis; assay: Antibacterial activity against methicillin-resistant Staphylococcus epidermidis after 16 hrs by agar dilution method; format: functional

T2 sequence (P08684 whole entry): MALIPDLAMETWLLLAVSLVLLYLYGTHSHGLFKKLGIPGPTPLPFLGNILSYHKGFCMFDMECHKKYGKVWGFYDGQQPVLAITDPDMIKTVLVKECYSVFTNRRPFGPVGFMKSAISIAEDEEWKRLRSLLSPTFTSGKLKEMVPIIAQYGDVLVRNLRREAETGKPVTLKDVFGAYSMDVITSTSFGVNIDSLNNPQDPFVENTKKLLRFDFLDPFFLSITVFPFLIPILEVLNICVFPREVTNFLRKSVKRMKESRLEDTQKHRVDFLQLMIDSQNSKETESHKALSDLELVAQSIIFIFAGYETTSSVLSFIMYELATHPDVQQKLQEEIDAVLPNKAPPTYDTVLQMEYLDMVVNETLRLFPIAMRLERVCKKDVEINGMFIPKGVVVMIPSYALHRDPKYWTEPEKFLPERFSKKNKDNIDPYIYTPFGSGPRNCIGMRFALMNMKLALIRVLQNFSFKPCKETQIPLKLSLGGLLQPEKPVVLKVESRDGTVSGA
Cytochrome P450 2C9, sequence (P11712 whole entry): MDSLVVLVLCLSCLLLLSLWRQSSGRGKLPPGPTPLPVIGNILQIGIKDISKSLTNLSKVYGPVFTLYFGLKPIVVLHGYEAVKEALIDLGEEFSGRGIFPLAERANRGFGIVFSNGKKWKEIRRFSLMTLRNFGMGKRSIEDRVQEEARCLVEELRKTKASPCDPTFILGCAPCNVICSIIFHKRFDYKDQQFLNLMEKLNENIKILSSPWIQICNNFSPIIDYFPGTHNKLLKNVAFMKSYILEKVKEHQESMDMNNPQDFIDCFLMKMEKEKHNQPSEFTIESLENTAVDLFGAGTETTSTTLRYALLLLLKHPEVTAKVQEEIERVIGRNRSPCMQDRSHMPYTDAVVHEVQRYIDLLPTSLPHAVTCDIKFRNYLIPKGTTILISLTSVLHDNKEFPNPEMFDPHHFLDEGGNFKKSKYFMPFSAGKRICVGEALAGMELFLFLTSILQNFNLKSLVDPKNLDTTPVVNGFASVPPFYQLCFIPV
Cytochrome P450 2D6, sequence (P10635 whole entry): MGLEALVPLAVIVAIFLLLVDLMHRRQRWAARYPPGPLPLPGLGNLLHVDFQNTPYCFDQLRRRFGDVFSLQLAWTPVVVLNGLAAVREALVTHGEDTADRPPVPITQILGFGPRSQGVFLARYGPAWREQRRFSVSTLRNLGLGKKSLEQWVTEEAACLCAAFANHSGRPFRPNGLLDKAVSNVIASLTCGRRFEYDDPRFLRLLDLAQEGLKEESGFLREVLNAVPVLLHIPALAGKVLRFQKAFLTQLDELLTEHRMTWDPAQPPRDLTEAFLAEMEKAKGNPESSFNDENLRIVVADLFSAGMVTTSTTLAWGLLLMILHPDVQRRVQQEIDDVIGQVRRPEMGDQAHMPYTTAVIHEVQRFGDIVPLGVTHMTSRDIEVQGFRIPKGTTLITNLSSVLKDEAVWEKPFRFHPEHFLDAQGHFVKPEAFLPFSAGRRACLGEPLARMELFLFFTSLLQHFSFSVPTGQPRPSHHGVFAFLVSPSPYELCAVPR
Cytochrome P450 2C19, sequence (P33261 whole entry): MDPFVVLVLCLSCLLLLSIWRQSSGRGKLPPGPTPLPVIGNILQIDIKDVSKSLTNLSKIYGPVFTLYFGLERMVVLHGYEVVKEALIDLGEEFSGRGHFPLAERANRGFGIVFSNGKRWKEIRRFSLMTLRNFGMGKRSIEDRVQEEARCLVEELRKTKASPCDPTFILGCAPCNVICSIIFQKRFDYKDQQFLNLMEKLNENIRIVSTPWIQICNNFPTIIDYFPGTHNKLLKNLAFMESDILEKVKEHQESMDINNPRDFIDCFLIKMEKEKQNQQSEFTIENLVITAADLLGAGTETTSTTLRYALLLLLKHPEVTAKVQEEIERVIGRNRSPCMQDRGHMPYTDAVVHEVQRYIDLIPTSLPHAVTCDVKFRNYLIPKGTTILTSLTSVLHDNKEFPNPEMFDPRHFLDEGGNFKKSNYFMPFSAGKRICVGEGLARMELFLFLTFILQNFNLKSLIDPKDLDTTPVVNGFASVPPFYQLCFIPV

Compound	AUC(0-t) [7] [ng·h/mL]	MRT [8] [min]	half-life [9] [min]	clearance [10] [mL/min/kg]	Vd [11] [L/kg]	MIC (Staphylococcus aureus [12]) [µg/mL]	ED50 (Staphylococcus aureus [13]) [mg/kg]	MIC (Staphylococcus aureus [15]) [µg/mL]	MIC (Staphylococcus aureus [16]) [µg/mL]	MIC (Staphylococcus aureus [17]) [µg/mL]	MIC [18] [µg/mL]	MIC (Streptococcus pneumoniae) [µg/mL]	MIC (Staphylococcus aureus [24]) [µg/mL]	ED50 (Staphylococcus aureus [25]) [mg/kg]	MIC (Staphylococcus aureus [26]) [µg/mL]	ED50 (Staphylococcus aureus [27]) [mg/kg]	MIC [30] [µg/mL]	further results
C=C[C@]1(C)C[C@@H](OC(=O)CSc2cncc(COP(=O)([O-])[O-])c2)[C@]2(C)[C@H](C)CC[C@]3(CCC(=O)[C@H]32)[C@@H](C)[C@@H]1O.[Na+].[Na+]	1580	39	382	83.3	3.26	> 32	29.2	–	–	–	–	–	–	–	–	–	–	solubility [1]: 106 mg/mL; remaining at 24 h [2]: 98.1%; remaining at 2400 h [3]: 98.1%; remaining at 24 h [4]: 98.1%; remaining at 336 h [5]: 98.1%; Tmax [6]: 4.8 min; concentration at […] [14]: 3 ng/mL; Tmax (Rattus norvegicus): < 5 min
C=C[C@]1(C)C[C@@H](OC(=O)CSc2cncc(NC(=O)CN3CCC(O)CC3)c2)[C@]2(C)[C@H](C)CC[C@]3(CCC(=O)[C@H]32)[C@@H](C)[C@@H]1O	–	–	–	–	–	0.063 (≈ 0.1 µM)	16.7	0.031 (≈ 0.0494 µM)	0.125 (≈ 0.199 µM)	0.063 (≈ 0.1 µM)	0.125 (≈ 0.199 µM)	0.063 (≈ 0.1 µM)	0.063 (≈ 0.1 µM)	9.02	0.125 (≈ 0.199 µM)	3.13	0.063 (≈ 0.1 µM)	AUC(0-t) [19]: 650 ng·h/mL; MRT [20]: 36.6 min; half-life [21]: 40.2 min; clearance [22]: 53.3 mL/min/kg; Vd [23]: 1.9 L/kg; IC50 (Cytochrome P450 1A2): > 25 µM; IC50 (Cytochrome P450 2C9): > 25 µM; IC50 (Cytochrome P450 2C19): > 25 µM; IC50 (Cytochrome P450 2D6): 11.2 µM; IC50 (Cytochrome P450 3A4 [28]): 1.89 µM; IC50 (Cytochrome P450 3A4 [29]): 1.63 µM
CC(=O)NC[C@H]1CN(c2ccc(N3CCOCC3)c(F)c2)C(=O)O1 [LINEZOLID]	–	–	–	–	–	1 (≈ 2.96 µM)	15.6	–	–	–	–	–	1 (≈ 2.96 µM)	7.89	1 (≈ 2.96 µM)	9.39	–	–
C=C[C@]1(C)C[C@@H](OC(=O)CSc2cncc(CO)c2)[C@]2(C)[C@H](C)CC[C@]3(CCC(=O)[C@H]32)[C@@H](C)[C@@H]1O	3480	32.4	360	48	1.56	–	–	0.031 (≈ 0.0618 µM)	0.063 (≈ 0.126 µM)	0.031 (≈ 0.0618 µM)	0.031 (≈ 0.0618 µM)	0.063 (≈ 0.126 µM)	–	–	–	–	0.031 (≈ 0.0618 µM)	–
